Results from patent US20260250318A1, “COMPOSITIONS AND METHODS FOR CROSSING THE BLOOD BRAIN BARRIER” (VOYAGER THERAPEUTICS, INC., priority 2022, published 2026).

The sequences below were run on brains, heart, liver, muscle, and DRG of the NHPs (assay: Maturation of TTM-001 and TTM-002 capsids, NGS enrichment in NHP tissues). Settings: NHP DRG; NGS; relative to AAV9 control.
Type: in vivo
In short: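 Variants carry mutations within and flanking the loop IV peptide insert: positions 450–466 were triplet-randomized, while positions 449–466 received low-frequency point mutations. The combined pool went into two NHPs, and each peptide was scored by NGS enrichment ratio against AAV9.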

Sequence	Fold Enrichment relative to AAV9, DRG (NHP)
KTINGSGSPHFPWQNQQT	0.000 fold
KTINGSGSPHSKAQNFKR	0.000 fold
KTICGRGSPHSKAQNQQT	0.000 fold
KTINGSGSPHSKFFIQQT	0.000 fold
KTINGSSSPHWMAQNQQT (peptide inserted in AAV capsid)	0.000 fold
KYIVGSGSPHSKAQNQQT (peptide inserted in AAV capsid)	0.000 fold
KTINGTRSPHKKAQNQQT	0.225 fold
KPARGSGSPHSKAQNQQT	0.000 fold
KTINGSGSPHSKNSRQQT	0.000 fold
KTINGSGSPHSWLKNQQT	0.000 fold
KTRTRSGSPHSKAQNQQT	0.000 fold
KTINALRSPHSKAQNQQT	0.000 fold
KTINGSGSPHSMYMNQQT	0.000 fold
KTINGSGSPHSRMRNQQT	0.000 fold
KTINGSGSPHSKLKRQQT	0.000 fold
KTINGSGSPHSKAHARQT	0.000 fold
KTINGSGSPHSSCTNQQT	0.000 fold

Same assay, conditions: NHP brain; NGS; relative to AAV9 control

Sequence	Fold Enrichment relative to AAV9, Brain (NHP)
KTINGSGSPHFPWQNQQT	0.000 fold
KTINGSGSPHSKAQNFKR	0.000 fold
KTICGRGSPHSKAQNQQT	0.000 fold
KTINGSGSPHSKFFIQQT	0.000 fold
KTINGSSSPHWMAQNQQT (peptide inserted in AAV capsid)	0.000 fold
KYIVGSGSPHSKAQNQQT (peptide inserted in AAV capsid)	0.000 fold
KTINGTRSPHKKAQNQQT	0.700 fold
KPARGSGSPHSKAQNQQT	0.000 fold
KTINGSGSPHSKNSRQQT	0.000 fold
KTINGSGSPHSWLKNQQT	0.000 fold
KTRTRSGSPHSKAQNQQT	0.000 fold
KTINALRSPHSKAQNQQT	0.000 fold
KTINGSGSPHSMYMNQQT	0.000 fold
KTINGSGSPHSRMRNQQT	0.000 fold
KTINGSGSPHSKLKRQQT	0.000 fold
KTINGSGSPHSKAHARQT	0.000 fold
KTINGSGSPHSSCTNQQT	0.000 fold

Same assay, conditions: NHP heart; NGS; relative to AAV9 control

Sequence	Fold Enrichment relative to AAV9, Heart (NHP)
KTINGSGSPHFPWQNQQT	0.000 fold
KTINGSGSPHSKAQNFKR	0.000 fold
KTICGRGSPHSKAQNQQT	0.000 fold
KTINGSGSPHSKFFIQQT	0.000 fold
KTINGSSSPHWMAQNQQT (peptide inserted in AAV capsid)	0.000 fold
KYIVGSGSPHSKAQNQQT (peptide inserted in AAV capsid)	0.000 fold
KTINGTRSPHKKAQNQQT	0.052 fold
KPARGSGSPHSKAQNQQT	0.000 fold
KTINGSGSPHSKNSRQQT	0.000 fold
KTINGSGSPHSWLKNQQT	0.000 fold
KTRTRSGSPHSKAQNQQT	0.000 fold
KTINALRSPHSKAQNQQT	0.000 fold
KTINGSGSPHSMYMNQQT	0.000 fold
KTINGSGSPHSRMRNQQT	0.000 fold
KTINGSGSPHSKLKRQQT	0.000 fold
KTINGSGSPHSKAHARQT	0.000 fold
KTINGSGSPHSSCTNQQT	0.000 fold

Same assay, conditions: NHP liver DNA; NGS; relative to AAV9 control

Sequence	Fold Enrichment relative to AAV9, Liver DNA (NHP)
KTINGSGSPHFPWQNQQT	1.731 fold
KTINGSGSPHSKAQNFKR	0.964 fold
KTICGRGSPHSKAQNQQT	2.171 fold
KTINGSGSPHSKFFIQQT	6.916 fold
KTINGSSSPHWMAQNQQT (peptide inserted in AAV capsid)	2.390 fold
KYIVGSGSPHSKAQNQQT (peptide inserted in AAV capsid)	4.480 fold
KTINGTRSPHKKAQNQQT	1.152 fold
KPARGSGSPHSKAQNQQT	1.391 fold
KTINGSGSPHSKNSRQQT	1.093 fold
KTINGSGSPHSWLKNQQT	0.603 fold
KTRTRSGSPHSKAQNQQT	6.894 fold
KTINALRSPHSKAQNQQT	1.655 fold
KTINGSGSPHSMYMNQQT	5.840 fold
KTINGSGSPHSRMRNQQT	2.816 fold
KTINGSGSPHSKLKRQQT	6.884 fold
KTINGSGSPHSKAHARQT	1.800 fold
KTINGSGSPHSSCTNQQT	3.363 fold

Same assay, conditions: NHP liver RNA; NGS; TTM-001 and TTM-002 matured AAV capsid variants; relative to AAV9 control

Sequence	Fold Enrichment relative to AAV9, Liver RNA (NHP)
KTINGSGSPHFPWQNQQT	53.587 fold
KTINGSGSPHSKAQNFKR	32.291 fold
KTICGRGSPHSKAQNQQT	18.923 fold
KTINGSGSPHSKFFIQQT	63.255 fold
KTINGSSSPHWMAQNQQT (peptide inserted in AAV capsid)	16.635 fold
KYIVGSGSPHSKAQNQQT (peptide inserted in AAV capsid)	94.721 fold
KTINGTRSPHKKAQNQQT	14.173 fold
KPARGSGSPHSKAQNQQT	16.793 fold
KTINGSGSPHSKNSRQQT	11.280 fold
KTINGSGSPHSWLKNQQT	13.995 fold
KTRTRSGSPHSKAQNQQT	25.852 fold
KTINALRSPHSKAQNQQT	20.053 fold
KTINGSGSPHSMYMNQQT	81.106 fold
KTINGSGSPHSRMRNQQT	48.902 fold
KTINGSGSPHSKLKRQQT	76.103 fold
KTINGSGSPHSKAHARQT	17.075 fold
KTINGSGSPHSSCTNQQT	11.382 fold

Same assay, conditions: NHP muscle; NGS; relative to AAV9 control

Sequence	Fold Enrichment relative to AAV9, Muscle (NHP)
KTINGSGSPHFPWQNQQT	0.000 fold
KTINGSGSPHSKAQNFKR	0.000 fold
KTICGRGSPHSKAQNQQT	0.000 fold
KTINGSGSPHSKFFIQQT	0.000 fold
KTINGSSSPHWMAQNQQT (peptide inserted in AAV capsid)	0.000 fold
KYIVGSGSPHSKAQNQQT (peptide inserted in AAV capsid)	0.000 fold
KTINGTRSPHKKAQNQQT	4.082 fold
KPARGSGSPHSKAQNQQT	0.000 fold
KTINGSGSPHSKNSRQQT	0.000 fold
KTINGSGSPHSWLKNQQT	0.000 fold
KTRTRSGSPHSKAQNQQT	0.000 fold
KTINALRSPHSKAQNQQT	0.000 fold
KTINGSGSPHSMYMNQQT	0.000 fold
KTINGSGSPHSRMRNQQT	0.000 fold
KTINGSGSPHSKLKRQQT	0.000 fold
KTINGSGSPHSKAHARQT	0.000 fold
KTINGSGSPHSSCTNQQT	0.000 fold
